Read-outs that look alike come from different tables or passages of the source.
Key:
[1] = Solubility in DMSO (stock preparation); assay type: physicochemical; details: stocks at 1 mg/mL
Description: We subsequently conducted serial dilution of the stock solutions with the optimized mobile phase to obtain stocks (S1) for ENF and BNB at a 100 µg/mL concentration. The S1 stocks were then serially diluted with mobile phase to obtain stocks (S2) for ENF and BNB at a 10 µg/mL concentration. The AVB stock was dissolved in DMSO to obtain a 100 µg/mL concentration that was then serially diluted with the mobile phase to obtain a stock (S3) of AVB at a 1 µg/mL concentration.

[2] = Metabolic stability after incubation with human liver microsomes (LC-MS/MS); assay type: in vitro ADME; details: for Slope (rate constant of disappearance, ln % remaining vs time): HLM; for half-life at 1 µM / microsomal CLint at 1 µM: human, human liver microsomes, HLM 1 mg/mL; for half-life at 1 µM: NADPH 1 mM, 37 °C, read-out: in vitro t1/2 (half-life); for microsomal CLint at 1 µM: read-out: CLint (intrinsic clearance)
Description: The slope of each regression equation was used to estimate the in vitro t1/2 using the following equations:(1) In vitro t 1/2=ln2/slope (2) In vitro t 1/2=0.693/slope
Similarly, the CLint of ENF and BNB was calculated following the in vitro t1/2 method (15) using the following equation:(3) CLint, =0.693/in vitro t 1/2. µL incubation/mg microsomes (4) CLint, =0.693/in vitro t 1/2. 1000 /1
BNB and ENF concentration during HLM incubation was adjusted to 1 µM to ensure that it was less than the Michaelis–Menten constant and constructed a linear relationship between the ratio of metabolism and incubation time. HLMs (1 mg/mL) in phosphate buffer were used to confirm the absence of nonspecific protein binding. We performed metabolic stability assessments for ENF and BNB by measuring the decrease in ENF and BNB concentrations after incubation with an HLM matrix. One micromole from ENF and BNB was incubated with HLM (1 mg protein in 1 mL phosphate buffer) in triplicate. The metabolic reaction medium was phosphate buffer (pH 7.4) containing 3.3 mM MgCl2. The metabolic mixture was pre-incubated in a 37 °C water bath for 10 min for temperature conditioning. NADPH (1 mM) was used for the initiation of the metabolic reaction, after which 2 mL ACN was used to terminate the reaction at specific time intervals (0, 1, 2.5, 7.5, 15, 30, and 50 min), allowing us to establish metabolic stability curves for ENF and BNB. We conducted this metabolic experiment for ENF alone, BNB alone, and a mixture of ENF and BNB to evaluate the metabolic stability of BNB and ENF alone and combined. The proportion of BNB and ENF remaining either alone or combined was plotted versus incubation time. From this plot, time points in the linear range were selected to plot the natural logarithm (ln) of the remaining proportions of ENF and BNB versus time. The slope of the linear part indicated the rate constant for ENF and BNB disappearance that was used for in vitro t1/2 calculation using equation (1). Then, ENF and BNB CLint values, either alone or combined, were calculated by applying the following Equation (3).

[3] = Stability in deactivated HLM matrix under laboratory storage conditions; assay type: physicochemical
Description: We evaluated the stability of ENF and BNB in deactivated HLM matrix (1 mg protein/1 mL phosphate buffer) under common laboratory storage conditions. Analyte stability evaluation was performed in different conditions: Room temperature for 8 h, three freeze–thaw cycles, storage at 4 °C for 24 h, and storage at −20 °C for 30 d. Measured values were 96.55–101.64% for ENF and 96.79–100.05% for BNB. Stability data for ENF and BNB are described in Table 4. […] The stability data reveal that the LC–MS/MS method could be successfully used for assaying ENF and BNB without noticeable loss.
The accuracy and precision of the proposed method were investigated inter- and intra-day. The intra- and inter-day accuracy and precision values were calculated according to USFDA guidelines. The stability of ENF and BNB in different conditions, room temperature for 8 h, three freeze–thaw cycles, and storage at 4 °C for 24 h and at −20 °C for 30 d, were examined.

[4] = pH 7.4, in mixture of ENF and BNB
[5] = room temperature for 8 h, 15 ng/mL
[6] = room temperature for 8 h, 150 ng/mL
[7] = room temperature for 8 h, 400 ng/mL
[8] = stored at 4 °C for 24 h, 400 ng/mL
[9] = stored at −20 °C for 30 days, 15 ng/mL
[10] = stored at −20 °C for 30 days, 150 ng/mL
[11] = stored at −20 °C for 30 days, 400 ng/mL
[12] = three freeze–thaw cycles, 15 ng/mL
[13] = three freeze–thaw cycles, 150 ng/mL
[14] = three freeze–thaw cycles, 400 ng/mL

| Solubility in DMSO [1] | Slope (rate constant of disappearance, ln % remaining vs time) ([2]; drug alone) | half-life at 1 µM ([2]; pH 7.4, drug alone) | microsomal CLint at 1 µM ([2]; pH 7.4, drug alone) | half-life at 1 µM [2, 4] | microsomal CLint at 1 µM [2, 4] | Slope (rate constant of disappearance, ln % remaining vs time) ([2]; in mixture of ENF and BNB) | Recovery % [3, 5] | Recovery % [3, 6] | Recovery % [3, 7] | Recovery % ([3]; stored at 4 °C for 24 h, 15 ng/mL) | Recovery % ([3]; stored at 4 °C for 24 h, 150 ng/mL) | Recovery % [3, 8] | Recovery % [3, 9] | Recovery % [3, 10] | Recovery % [3, 11] | Recovery % [3, 12] | Recovery % [3, 13] | Recovery % [3, 14] | Stability, measured values over all storage conditions ([3]; room temperature 8 h, three freeze–thaw cycles, 4 °C 24 h, −20 °C 30 d) | SMILES |
| --- | --- | --- | --- | --- | --- | --- | --- | --- | --- | --- | --- | --- | --- | --- | --- | --- | --- | --- | --- | --- |
| freely soluble |  |  |  |  |  |  |  |  |  |  |  |  |  |  |  |  |  |  |  | C=CC(=O)Nc1cccc(Oc2nc(Nc3ccc(N4CCN(C)CC4)c(F)c3)nc3[nH]ccc23)c1 [AVB, avitinib] |
| freely soluble | 0.0115 | 60.3 min | 11.5 µL/min/mg | 58.2 min | 11.9 µL/min/mg | 0.0119 | 99.25% | 98.25% | 98.85% | 100.05% | 97.59% | 99.33% | 96.72% | 97.72% | 98.78% | 98.32% | 96.79% | 97.48% |  | Cn1cnc2c(F)c(Nc3ccc(Br)cc3F)c(C(=O)NOCCO)cc21 [BNB, binimetinib] |
| freely soluble | 0.0161 | 43.1 min | 16.1 µL/min/mg | 45.9 min | 15.1 µL/min/mg | 0.0151 | 101.64% | 100.55% | 101.46% |  |  | 98.21% | 100.18% | 96.55% | 98.41% | 97.37% | 97.22% | 99.66% | 96.55–101.64% | COC(=O)N[C@@H](C)CNc1nccc(-c2cn(C(C)C)nc2-c2cc(Cl)cc(NS(C)(=O)=O)c2F)n1 [ENF, encorafenib] |

Reference: paper PMC8125647, “A Validated LC–MS/MS Assay for the Simultaneous Quantification of the FDA-Approved Anticancer Mixture (Encorafenib and Binimetinib): Metabolic Stability Estimation” (Molecules, 2021)
